According to US8901035B2, “Herbicidal compositions comprising 4-amino-3-chloro-5-fluoro-6-(4-chloro-2-fluoro-3-methoxyphenyl) pyridine-2-carboxylic acid or a derivative thereof and cellulose biosynthesis inhibitor herbicides” (Dow AgroSciences LLC, priority 2012, dated 2014):

Columns and labels:
Assay type in all cases: in vivo
[1] = system: Galium aparine L. (GALAP); test: Postemergence herbicidal activity of mixtures in cereal crops in the greenhouse
Experimental: (§1) Seeds of the desired test plant species were planted in Sun Gro MetroMix 306 planting mixture, which typically has a pH of 6.0 to 6.8 and an organic matter content of about 30 percent, in plastic pots with a surface area of 103.2 square centimeters (cm^2). When required to ensure good germination and healthy plants, a fungicide treatment and/or other chemical or physical treatment was applied. The plants were grown for 7-36 days in a greenhouse with an approximate 14 hour photoperiod which was maintained at about 18° C. during the day and about 17° C. during the night. Nutrients and water were added on a regular basis and supplemental lighting was provided with overhead metal halide 1000-Watt lamps as necessary. The plants were employed for testing when they reached the second or third true leaf stage.
(§2) Treatments consisted of the benzyl ester of 4-amino-3-chloro-5-fluoro-6-(4-chloro-2-fluoro-3-methoxy-phenyl)pyridine-2-carboxylic acid (Compound A), formulated as an SC, a second cereal herbicide alone and then both in combination.
(§3) Other herbicidal components were applied on an active ingredient basis and included cellulose biosynthesis inhibiting herbicides.
(§4) Measured aliquots of benzyl ester of 4-amino-3-chloro-5-fluoro-6-(4-chloro-2-fluoro-3-methoxy-phenyl)pyridine-2-carboxylic acid (Compound A) were placed in 25 milliliter (mL) glass vials and diluted in a volume of 1.25% (v/v) Agri-Dex® crop oil concentrate to obtain stock solutions. Compound requirements are based upon a 12 mL application volume at a rate of 187 liters per hectare (L/ha). Spray solutions of the second cereal herbicide and experimental compound mixtures were prepared by adding the stock solutions to the appropriate amount of dilution solution to form 12 mL spray solution with active ingredients in two- and three-way combinations. Formulated compounds were applied to the plant material with an overhead Mandel track sprayer equipped with an 8002E nozzle calibrated to deliver 187 L/ha over an application area of 0.503 square meters (m^2) at a spray height of 18 inches (46 cm) above average plant canopy. Control plants were sprayed in the same manner with the solvent blank.
(§5) The treated plants and control plants were placed in a greenhouse as described above and watered by sub-irrigation to prevent wash-off of the test compounds. After 20-22 days, the condition of the test plants as compared with that of the control plants was determined visually and scored on a scale of 0 to 100 percent where 0 corresponds to no injury and 100 corresponds to complete kill.
(§6) Colby's equation was used to determine the herbicidal effects expected from the mixtures (Colby, S. R. 1967. Calculation of the synergistic and antagonistic response of herbicide combinations. Weeds 15:20-22).
(§7) The following equation was used to calculate the expected activity of mixtures containing two active ingredients, A and B: Expected=A+B−(A×B/100)
(§8) A=observed efficacy of active ingredient A at the same concentration as used in the mixture.
(§9) B=observed efficacy of active ingredient B at the same concentration as used in the mixture.

[2] = system: Sinapis arvensis L. (SINAR); test: as above
Experimental: as §1, §2, §3, §4, §5, §6, §7, §8, §9

[3] = system: Chenopodium album L. (CHEAL); test: as above
Experimental: as §1, §2, §3, §4, §5, §6, §7, §8, §9

[4] = system: Stellaria media (L.) Vill. (STEME); test: as above
Experimental: as §1, §2, §3, §4, §5, §6, §7, §8, §9

[5] = system: Cirsium arvense (L.) Scop. (CIRAR); test: as above
Experimental: as §1, §2, §3, §4, §5, §6, §7, §8, §9

[6] = system: Amaranthus retroflexus L. (AMARE); test: as above
Experimental: as §1, §2, §3, §4, §5, §6, §7, §8, §9

[7] = system: Abutilon theophrasti Medik. (ABUTH); test: Pre-emergence soil-applied herbicidal mixtures for weed control (greenhouse)
Description: Seeds or nutlets of the desired test plant species were planted in a soil matrix prepared by mixing a loam soil (e.g., 32 percent silt, 23 percent clay, and 45 percent sand, with a pH of about 6.5 and an organic matter content of about 1.9 percent) and calcareous grit in an 80 to 20 ratio. The soil matrix was contained in plastic pots with a volume of 1 quart and a surface area of 83.6 square centimeters (cm^2).
Treatments consisted of the benzyl ester of 4-amino-3-chloro-5-fluoro-6-(4-chloro-2-fluoro-3-methoxy-phenyl)pyridine-2-carboxylic acid (compound A) formulated as an SC (suspension concentrate) and various herbicidal components alone and in combination. Forms of compound A were applied on an acid equivalent basis.
Other herbicidal components were applied on an acid equivalent or active ingredient basis and included the cellulose biosynthesis inhibiting herbicides, isoxaben formulated as Gallery® 75DF and indaziflam formulated as Specticle® 20WSP.
Treatment requirements were calculated based upon the rates being tested, the concentration of active ingredient or acid equivalent in the formulation, and a 12 mL application volume at a rate of 187 L/ha.
For treatments comprised of formulated compounds, measured amounts of compounds were placed individually in 25 mL glass vials and diluted in a volume of 1.25% (v/v) Agri-Dex® crop oil concentrate (COC) to obtain 12× stock solutions. […] Application solutions were prepared by adding an appropriate amount of each stock solution (e.g., 1 mL) and diluted to the appropriate final concentrations with the addition of 10 mL of an aqueous mixture of 1.25% (v/v) COC so that the final spray solutions contained 1.25% (v/v) COC.
All stock solutions and applications solutions were visually inspected for compound compatibility prior to application. Spray solutions were applied to the soil with an overhead Mandel track sprayer equipped with a 8002E nozzles calibrated to deliver 187 L/ha over an application area of 0.503 m^2 at a spray height of 18 inches (46 cm) above average pot height. Control pots were sprayed in the same manner with the solvent blank.
The treated and control pots were placed in a greenhouse and top watered as needed. When required to ensure good germination and healthy plants, a fungicide treatment and/or other chemical or physical treatment was applied. The pots were maintained in a greenhouse with an approximate 14 hr. photoperiod which was maintained at about 29° C. during the day and 26° C. during the night. Nutrients (Peters® Excel 15-5-15 5-Ca 2-Mg) were applied in the irrigation solution as needed and water was added on a regular basis. Supplemental lighting was provided with overhead metal halide 1000-Watt lamps as necessary. After approximately 4 weeks, the condition of the test plants as compared with that of the untreated plants was determined visually and scored on a scale of 0 to 100 percent where 0 corresponds to no injury or growth inhibition and 100 corresponds to complete kill.
as §6, §7, §8, §9

[8] = Compound A Benzyl Ester 2.5 g ai/ha alone
[9] = Compound A Benzyl Ester 5 g ai/ha alone
[10] = Compound A Benzyl Ester 10 g ai/ha alone

COc1c(Cl)ccc(-c2nc(C(=O)OCc3ccccc3)c(Cl)c(N)c2F)c1F [Compound A Benzyl Ester, benzyl ester of 4-amino-3-chloro-5-fluoro-6-(4-chloro-2-fluoro-3-methoxy-phenyl)pyridine-2-carboxylic acid]
Visual Weed Control (%) - 21 DAA Obs [1, 8]: 55% | Visual Weed Control (%) - 21 DAA Obs [1, 9]: 66% | Visual Weed Control (%) - 21 DAA Obs [1, 10]: 77% | Visual Weed Control (%) - 21 DAA SINAR Obs [2, 8]: 70% | Visual Weed Control (%) - 21 DAA SINAR Obs [2, 9]: 73% | Visual Weed Control (%) - 21 DAA CHEAL Obs [3, 8]: 50% | Visual Weed Control (%) - 21 DAA CHEAL Obs [3, 9]: 58% | Visual Weed Control (%) - 21 DAA Obs [4, 8]: 25% | Visual Weed Control (%) - 21 DAA Obs [4, 9]: 25% | Visual Weed Control (%) - 21 DAA Obs [4, 10]: 27% | Visual Weed Control (%) - 21 DAA Obs [5, 9]: 39% | Visual Weed Control (%) - 21 DAA Obs [5, 10]: 60% | Visual Weed Control (%) - 21 DAA AMARE Obs [6, 8]: 20% | Visual Weed Control (%) - 21 DAA AMARE Obs [6, 9]: 38% | Visual Weed Control (%) - 27 DAA ABUTH Obs ([7]; Compound A Benzyl Ester 16 g ae/ha alone): 48% | Visual Weed Control (%) - 27 DAA ABUTH Obs ([7]; Compound A Benzyl Ester 32 g ae/ha alone): 87%

CCC(C)(CC)c1cc(NC(=O)c2c(OC)cccc2OC)on1 [Isoxaben, N-[3-(1-ethyl-1-methylpropyl)-5-isoxazolyl]-2,6-dimethoxybenzamide, reference compound]
Visual Weed Control (%) - 21 DAA Obs ([1]; Isoxaben 31.25 g ai/ha alone): 0% | Visual Weed Control (%) - 21 DAA Obs ([1]; Isoxaben 62.5 g ai/ha alone): 8% | Visual Weed Control (%) - 21 DAA Obs ([1]; Isoxaben 125 g ai/ha alone): 12% | Visual Weed Control (%) - 21 DAA SINAR Obs ([2]; Isoxaben 31.25 g ai/ha alone): 13% | Visual Weed Control (%) - 21 DAA SINAR Obs ([2]; Isoxaben 62.5 g ai/ha alone): 13% | Visual Weed Control (%) - 21 DAA CHEAL Obs ([3]; Isoxaben 31.25 g ai/ha alone): 5% | Visual Weed Control (%) - 21 DAA CHEAL Obs ([3]; Isoxaben 62.5 g ai/ha alone): 5% | Visual Weed Control (%) - 21 DAA Obs ([4]; Isoxaben 31.25 g ai/ha alone): 5% | Visual Weed Control (%) - 21 DAA Obs ([4]; Isoxaben 62.5 g ai/ha alone): 5% | Visual Weed Control (%) - 21 DAA Obs ([5]; Isoxaben 31.25 g ai/ha alone): 3% | Visual Weed Control (%) - 21 DAA Obs ([5]; Isoxaben 62.5 g ai/ha alone): 13% | Visual Weed Control (%) - 21 DAA Obs ([5]; Isoxaben 125 g ai/ha alone): 17% | Visual Weed Control (%) - 21 DAA AMARE Obs ([6]; Isoxaben 31.25 g ai/ha alone): 0% | Visual Weed Control (%) - 21 DAA AMARE Obs ([6]; Isoxaben 62.5 g ai/ha alone): 8% | Visual Weed Control (%) - 27 DAA ABUTH Obs ([7]; Isoxaben 560 g ai/ha alone): 77% | Visual Weed Control (%) - 27 DAA ABUTH Obs ([7]; Isoxaben 1120 g ai/ha alone): 67%
